From US5922740A, “Heterocyclylcarbonyl substituted benzofuranyl-ureas” (Bayer Aktiengesellschaft, priority 1995, dated 1999)

How the values were obtained:
human monocytes = experiment: Endotoxin induced TNF release; assay type: cell-based; settings: LPS 2 μg ml^-1, 18 to 24 hours, ELISA
Protocol: 7. Preparation of Human Monocytes
Blood was taken from normal donors. Monocytes were isolated from peripheral blood by density centrifugation, followed by centrifugal elutriation.
8. Endotoxin Induced TNF Release
Monocytes (1×10^6 ml^-1) were stimulated with LPS (2 μg ml^-1) and coincubated with the compounds at different concentrations (10^-4 to 10 μg ml^-1) Compounds were dissolved in DMSO/medium (2% v/v). The cells were incubated in RPMI-1640 medium glutamine/FCS supplemented and at 37° C. in a humidified atmosphere with 5% CO2. After 18 to 24 hours TNF was determined in the supernatants by an human TNF specific ELISA (medgenix). Controls were nonstimulated and LPS stimulated monocytes without compounds. Example 2, 13 and 16 induce inhibition of LPS driven TNF activity in human monocytes (IC50 : 10^-3 to 1 μg ml^-1).

B6D2F1 mice = experiment: Endotoxin induced shock lethality in mice; assay type: in vivo; settings: galactosamine-sensitized mice, LPS 0.01 μg/mouse; compound intravenously 1 hour prior LPS, doses of 3 to 30 mg/kg
Protocol: 9. Endotoxin Induced Shock Lethality in Mice
B6D2F1 mice (n=10) were sensitized with galactosamine (600 mg/kg), and shock and lethality were triggered by LPS (0.01 μg/mouse). The compounds were administered intravenously 1 hour prior LPS. Controls were LPS challenged mice without compound. Mice were dying 8 to 24 hours post LPS challenge. Example 2, 13 and 16 reduced the endotoxin medicated mortality about 70% to 100% at doses of 3 to 30 mg/kg.

Row | Compound | IC50, inhibition of LPS driven TNF activity (human monocytes) | reduction of endotoxin mediated mortality (B6D2F1 mice)
1 | CC[n+]1ccc(C(=O)c2oc3cc(OC)ccc3c2NC(N)=O)cc1 [Example 13] | 10^-3 to 1 μg ml^-1 | 70% to 100
2 | COc1ccc2c(NC(N)=O)c(C(=O)c3ccncc3)oc2c1 [Example 2] | 10^-3 to 1 μg ml^-1 | 70% to 100
3 | Cc1ccc2c(NC(N)=O)c(C(=O)c3cccnc3)oc2c1 [Example 16] | 10^-3 to 1 μg ml^-1 | 70% to 100
